Test results: the NIST ThermoML archive (doi:10.1016/j.fluid.2007.12.007)

Key:
[1] = xn = mol fraction of the nth substance listed; details: 101 kPa, Liquid
[2] = 101.33 kPa, Liquid

NC=O [formamide] + CCCCO
[1]
Details	speed of sound [m/s]	viscosity [mPa·s]
293.15 K, x1 = 0.1093	1302.3	3.225
293.15 K, x1 = 0.2057	1337.7	3.446
293.15 K, x1 = 0.3138	1377	3.598
293.15 K, x1 = 0.4104	1412	3.696
293.15 K, x1 = 0.5115	1448.4	3.754
293.15 K, x1 = 0.6124	1484.4	3.777
293.15 K, x1 = 0.7081	1518	3.77
293.15 K, x1 = 0.8123	1554	3.744
293.15 K, x1 = 0.9086	1586.4	3.708
298.15 K, x1 = 0.1093	1281.2	2.81
298.15 K, x1 = 0.2057	1315.3	3.018
298.15 K, x1 = 0.3138	1353.7	3.181
298.15 K, x1 = 0.4104	1388.3	3.285
298.15 K, x1 = 0.5115	1424.6	3.352
298.15 K, x1 = 0.6124	1461	3.386
298.15 K, x1 = 0.7081	1495.5	3.389
298.15 K, x1 = 0.8123	1533.1	3.379
298.15 K, x1 = 0.9086	1567.9	3.355
303.15 K, x1 = 0.1093	1261.5	2.506
303.15 K, x1 = 0.2057	1294.8	2.693
303.15 K, x1 = 0.3138	1332.6	2.846
303.15 K, x1 = 0.4104	1367.1	2.947
303.15 K, x1 = 0.5115	1403.4	3.003
303.15 K, x1 = 0.6124	1440.3	3.032
303.15 K, x1 = 0.7081	1475.4	3.036
303.15 K, x1 = 0.8123	1515.3	3.019
303.15 K, x1 = 0.9086	1552.5	2.996
308.15 K, x1 = 0.1093	1243.5	2.202
308.15 K, x1 = 0.2057	1275.6	2.371
308.15 K, x1 = 0.3138	1312.7	2.516
308.15 K, x1 = 0.4104	1347	2.616
308.15 K, x1 = 0.5115	1383.6	2.676
308.15 K, x1 = 0.6124	1420.5	2.702
308.15 K, x1 = 0.7081	1456.5	2.705
308.15 K, x1 = 0.8123	1497.9	2.688
308.15 K, x1 = 0.9086	1537.2	2.671
313.15 K, x1 = 0.1093	1223.7	1.92
313.15 K, x1 = 0.2057	1255.5	2.081
313.15 K, x1 = 0.3138	1292.1	2.224
313.15 K, x1 = 0.4104	1326	2.324
313.15 K, x1 = 0.5115	1362.6	2.388
313.15 K, x1 = 0.6124	1399.8	2.418
313.15 K, x1 = 0.7081	1437	2.426
313.15 K, x1 = 0.8123	1479.9	2.423
313.15 K, x1 = 0.9086	1521.9	2.413
318.15 K, x1 = 0.1093	1203.3	1.725
318.15 K, x1 = 0.2057	1234.5	1.874
318.15 K, x1 = 0.3138	1270.8	2.008
318.15 K, x1 = 0.4104	1305	2.106
318.15 K, x1 = 0.5115	1341.3	2.167
318.15 K, x1 = 0.6124	1379.1	2.204
318.15 K, x1 = 0.7081	1417.5	2.217
318.15 K, x1 = 0.8123	1461.9	2.216
318.15 K, x1 = 0.9086	1506.6	2.216

NC=O [formamide] + CCC(C)O
[1]
Details	speed of sound [m/s]	viscosity [mPa·s]
293.15 K, x1 = 0.1043	1264.1	4.14
293.15 K, x1 = 0.2043	1295.8	4.08
293.15 K, x1 = 0.3056	1329.1	4.046
293.15 K, x1 = 0.4083	1364.5	4.041
293.15 K, x1 = 0.5093	1401.3	4.026
293.15 K, x1 = 0.6063	1438.8	3.99
293.15 K, x1 = 0.7068	1480.1	3.929
293.15 K, x1 = 0.8042	1522.5	3.859
293.15 K, x1 = 0.9024	1568	3.77
298.15 K, x1 = 0.1043	1243.5	3.044
298.15 K, x1 = 0.2043	1274.8	3.064
298.15 K, x1 = 0.3056	1308	3.113
298.15 K, x1 = 0.4083	1343.4	3.19
298.15 K, x1 = 0.5093	1380.4	3.261
298.15 K, x1 = 0.6063	1418.1	3.31
298.15 K, x1 = 0.7068	1459.9	3.338
298.15 K, x1 = 0.8042	1503.4	3.351
298.15 K, x1 = 0.9024	1550.5	3.348
303.15 K, x1 = 0.1043	1225	2.516
303.15 K, x1 = 0.2043	1256.1	2.551
303.15 K, x1 = 0.3056	1289.2	2.617
303.15 K, x1 = 0.4083	1324.7	2.713
303.15 K, x1 = 0.5093	1361.9	2.8
303.15 K, x1 = 0.6063	1400	2.869
303.15 K, x1 = 0.7068	1442.6	2.918
303.15 K, x1 = 0.8042	1487.3	2.949
303.15 K, x1 = 0.9024	1536	2.966
308.15 K, x1 = 0.1043	1204.5	2.126
308.15 K, x1 = 0.2043	1235.7	2.167
308.15 K, x1 = 0.3056	1268.9	2.239
308.15 K, x1 = 0.4083	1304.5	2.339
308.15 K, x1 = 0.5093	1341.9	2.435
308.15 K, x1 = 0.6063	1380.6	2.512
308.15 K, x1 = 0.7068	1424.4	2.571
308.15 K, x1 = 0.8042	1470.5	2.611
308.15 K, x1 = 0.9024	1521	2.639
313.15 K, x1 = 0.1043	1185.6	1.802
313.15 K, x1 = 0.2043	1216.2	1.848
313.15 K, x1 = 0.3056	1249.3	1.927
313.15 K, x1 = 0.4083	1285.3	2.035
313.15 K, x1 = 0.5093	1323.1	2.138
313.15 K, x1 = 0.6063	1362.1	2.224
313.15 K, x1 = 0.7068	1406.8	2.291
313.15 K, x1 = 0.8042	1453.9	2.338
313.15 K, x1 = 0.9024	1506.1	2.375
318.15 K, x1 = 0.1043	1167.6	1.543
318.15 K, x1 = 0.2043	1197.6	1.593
318.15 K, x1 = 0.3056	1230.7	1.677
318.15 K, x1 = 0.4083	1266.9	1.791
318.15 K, x1 = 0.5093	1305	1.903
318.15 K, x1 = 0.6063	1344.2	1.998
318.15 K, x1 = 0.7068	1389.5	2.072
318.15 K, x1 = 0.8042	1437.6	2.129
318.15 K, x1 = 0.9024	1491.3	2.175

CCC(C)O (stereo not given) [butan-2-ol]
[2]
Details	speed of sound [m/s]	viscosity [mPa·s]
293.15 K	1232.6	4.212
298.15 K	1212.6	3.034
303.15 K	1194.6	2.495
308.15 K	1174.5	2.106
313.15 K	1155.9	1.784
318.15 K	1138.6	1.524

OCCCCO [1,4-butanediol]
[2]
Details	speed of sound [m/s]	viscosity [mPa·s]
293.15 K	1616.4	97.26
298.15 K	1605.6	72.75
303.15 K	1595.9	56.89
308.15 K	1587.3	44.88
313.15 K	1579.8	35.81
318.15 K	1570.2	29.05
